Each compound was assayed against human recombinant H-PGDS (Homo sapiens, UniProt O60760) (assay: Fluorescence intensity h-PGDS TBA enzyme assay). Conditions: Examples up to 622 (and 3a, 3b).
Sequence of human recombinant H-PGDS (O60760 whole entry): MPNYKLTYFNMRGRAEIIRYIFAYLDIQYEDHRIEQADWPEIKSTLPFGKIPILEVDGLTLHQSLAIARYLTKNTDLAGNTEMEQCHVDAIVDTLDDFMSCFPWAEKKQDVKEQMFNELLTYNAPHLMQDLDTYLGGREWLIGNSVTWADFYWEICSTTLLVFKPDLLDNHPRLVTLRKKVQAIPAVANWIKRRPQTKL
Format: biochemical
CNS(=O)(=O)c1ccc(CN2CCC(NC(=O)c3ccc(-c4cccc(F)c4)nc3)CC2)cc1 [Example 282, 6-(3-Fluorophenyl)-N-(1-{4-[(methylamino)sulfonyl]benzyl}piperidin-4-yl)nicotinamide] was tested, and the IC50 was 0.629 nM.
Cc1cccc(CN2CCC(NC(=O)c3ccc(-c4cccc(F)c4)nc3)CC2)n1 [Example 283, 6-(3-Fluorophenyl)-N-{1-[(6-methylpyridin-2-yl)methyl]piperidin-4-yl}nicotinamide] was tested, and the IC50 was 0.5 nM.
Compound CCOC(=O)Cn1ccc2cc(CN3CCC(NC(=O)c4ccc(-c5cccc(F)c5)nc4)CC3)ccc21 [Example 284, Ethyl (5-{[4-({[6-(3-fluorophenyl)pyridin-3-yl]carbonyl}amino)piperidin-1-yl]methyl}-1H-indol-1-yl)acetate] has an IC50 of 1.43 nM.
COc1ccccc1C1(CN2CCC(NC(=O)c3ccc(-c4cccc(F)c4)nc3)CC2)CCOCC1 [Example 285, 6-(3-Fluorophenyl)-N-(1-{[4-(2-methoxyphenyl)tetrahydro-2H-pyran-4-yl]methyl}piperidin-4-yl)nicotinamide] was tested, and the IC50 was 1.53 nM.
With COc1cccc(C2(CN3CCC(NC(=O)c4ccc(-c5cccc(F)c5)nc4)CC3)CCOCC2)c1 [Example 286, 6-(3-Fluorophenyl)-N-(1-{[4-(3-methoxyphenyl)tetrahydro-2H-pyran-4-yl]methyl}piperidin-4-yl)nicotinamide] the IC50 was 1.21 nM.
Work on Cc1c(CN2CCC(NC(=O)c3ccc(-c4cccc(F)c4)nc3)CC2)cnn1C [Example 287, N-{1-[(1,5-dimethyl-1H-pyrazol-4-yl)methyl]piperidin-4-yl}-6-(3-fluorophenyl)nicotinamide] yielded an IC50 of 3 nM.
In the case of O=C(NC1CCN(Cc2ccc3nsnc3c2)CC1)c1ccc(-c2cccc(F)c2)nc1 [Example 288, N-[1-(2,1,3-Benzothiadiazol-5-ylmethyl)piperidin-4-yl]-6-(3-fluorophenyl)nicotinamide], the IC50 is reported as 1.25 nM.
O=C(NC1CCN(Cc2cnc(-c3ccccc3)s2)CC1)c1ccc(-c2cccc(F)c2)nc1 [Example 289, 6-(3-Fluorophenyl)-N-{1-[(2-phenyl-1,3-thiazol-5-yl)methyl]piperidin-4-yl}nicotinamide] gave an IC50 of 2.09 nM.
O=C(NC1CCN(Cc2ccc3ncccc3c2)CC1)c1ccc(-c2cccc(F)c2)nc1 [Example 290, 6-(3-Fluorophenyl)-N-[1-(quinolin-6-ylmethyl)piperidin-4-yl]nicotinamide] showed an IC50 of 0.843 nM.
Work on CCOc1cccc(CN2CCC(NC(=O)c3ccc(-c4cccc(F)c4)nc3)CC2)c1 [Example 291, N-[1-(3-Ethoxybenzyl)piperidin-4-yl]-6-(3-fluorophenyl)nicotinamide] yielded an IC50 of 1.17 nM.
Work on O=C(NC1CCN(Cc2ccccc2OC(F)F)CC1)c1ccc(-c2cccc(F)c2)nc1 [Example 292, N-{1-[2-(Difluoromethoxy)benzyl]piperidin-4-yl}-6-(3-fluorophenyl)nicotinamide] yielded an IC50 of 0.465 nM.
In the case of CC(CCC#N)(CN1CCC(NC(=O)c2ccc(-c3cccc(F)c3)nc2)CC1)c1ccccc1 (centres unmarked) [Example 293, N-[1-(4-Cyano-2-methyl-2-phenylbutyl)piperidin-4-yl]-6-(3-fluorophenyl)nicotinamide], the IC50 is reported as 0.592 nM.
O=C(NC1CCN(Cc2c[nH]cn2)CC1)c1ccc(-c2cccc(F)c2)nc1 [Example 294, 6-(3-Fluorophenyl)-N-[1-(1H-imidazol-4-ylmethyl)piperidin-4-yl]nicotinamide] showed an IC50 of 1.76 nM.
For COc1ccc(F)cc1CN1CCC(NC(=O)c2ccc(-c3cccc(F)c3)nc2)CC1 [Example 295, N-[1-(5-Fluoro-2-methoxybenzyl)piperidin-4-yl]-6-(3-fluorophenyl)nicotinamide], the IC50 was 0.506 nM.
In the case of Cc1nc[nH]c1CN1CCC(NC(=O)c2ccc(-c3cccc(F)c3)nc2)CC1 [Example 296, 6-(3-Fluorophenyl)-N-{1-[(4-methyl-1H-imidazol-5-yl)methyl]piperidin-4-yl}nicotinamide], the IC50 is reported as 1.4 nM.
With COc1cc(CN2CCC(NC(=O)c3ccc(-c4cccc(F)c4)nc3)CC2)cc(OC)c1 [Example 297, N-[1-(3,5-Dimethoxybenzyl)piperidin-4-yl]-6-(3-fluorophenyl)nicotinamide] the IC50 was 1.25 nM.
CC(C)(C)CCN1CCC(NC(=O)c2ccc(-c3cccc(F)c3)nc2)CC1 [Example 298, N-[1-(3,3-Dimethylbutyl)piperidin-4-yl]-6-(3-fluorophenyl)nicotinamide] showed an IC50 of 0.939 nM.
O=C(NC1CCN(Cc2ccccc2Cl)CC1)c1ccc(-c2cccc(F)c2)nc1 [Example 299, N-[1-(2-Chlorobenzyl)piperidin-4-yl]-6-(3-fluorophenyl)nicotinamide] gave an IC50 of 0.308 nM.
O=C(NC1CCN(Cc2ncc[nH]2)CC1)c1ccc(-c2cccc(F)c2)nc1 [Example 300, 6-(3-Fluorophenyl)-N-[1-(1H-imidazol-2-ylmethyl)piperidin-4-yl]nicotinamide] showed an IC50 of 0.362 nM.
O=C(NC1CCN(CCCc2ccccc2)CC1)c1ccc(-c2cccc(F)c2)nc1 [Example 301, 6-(3-Fluorophenyl)-N-[1-(3-phenylpropyl)piperidin-4-yl]nicotinamide] gave an IC50 of 1.16 nM.
Compound Cc1cc(CN2CCC(NC(=O)c3ccc(-c4cccc(F)c4)nc3)CC2)ccc1F [Example 302, N-[1-(4-Fluoro-3-methylbenzyl)piperidin-4-yl]-6-(3-fluorophenyl)nicotinamide] has an IC50 of 0.636 nM.
Work on N#Cc1cc(CN2CCC(NC(=O)c3ccc(-c4cccc(F)c4)nc3)CC2)ccc1F [Example 303, N-[1-(3-Cyano-4-fluorobenzyl)piperidin-4-yl]-6-(3-fluorophenyl)nicotinamide] yielded an IC50 of 0.662 nM.
Work on O=C(NC1CCN(Cc2ccc3[nH]ccc3c2)CC1)c1ccc(-c2cccc(F)c2)nc1 [Example 304, 6-(3-Fluorophenyl)-N-[1-(1H-indol-5-ylmethyl)piperidin-4-yl]nicotinamide] yielded an IC50 of 2.11 nM.
In the case of COc1cc(C)cc(OC)c1CN1CCC(NC(=O)c2ccc(-c3cccc(F)c3)nc2)CC1 [Example 305, N-[1-(2,6-Dimethoxy-4-methylbenzyl)piperidin-4-yl]-6-(3-fluorophenyl)nicotinamide], the IC50 is reported as 2.7 nM.
Work on CCOc1cc(OC)ccc1CN1CCC(NC(=O)c2ccc(-c3cccc(F)c3)nc2)CC1 [Example 306, N-[1-(2-Ethoxy-4-methoxybenzyl)piperidin-4-yl]-6-(3-fluorophenyl)nicotinamide] yielded an IC50 of 2.71 nM.
Cc1ccc(-c2n[nH]cc2CN2CCC(NC(=O)c3ccc(-c4cccc(F)c4)nc3)CC2)cc1 [Example 307, 6-(3-Fluorophenyl)-N-(1-{[3-(4-methylphenyl)-1H-pyrazol-4-yl]methyl}piperidin-4-yl)nicotinamide] gave an IC50 of 0.784 nM.
N#Cc1ccc(Oc2ccc(CN3CCC(NC(=O)c4ccc(-c5cccc(F)c5)nc4)CC3)cn2)cc1 [Example 308, N-(1-{[6-(4-Cyanophenoxy)pyridin-3-yl]methyl}piperidin-4-yl)-6-(3-fluorophenyl)nicotinamide] showed an IC50 of 2.03 nM.
With O=C(NC1CCN(CC2=C(Cl)c3cc(F)ccc3OC2)CC1)c1ccc(-c2cccc(F)c2)nc1 [Example 309, N-(1-[(4-Chloro-6-fluoro-2H-chromen-3-yl)methyl]piperidin-4-yl)-6-(3-fluorophenyl)nicotinamide] the IC50 was 4.32 nM.
Work on O=C(NC1CCN(Cc2cc(=O)[nH]c(=O)[nH]2)CC1)c1ccc(-c2cccc(F)c2)nc1 [Example 310, N-{1-[(2,6-Dioxo-1,2,3,6-tetrahydropyrimidin-4-yl)methyl]piperidin-4-yl)-6-(3-fluorophenyl)nicotinamide] yielded an IC50 of 4.78 nM.

From patent publication US7902373B2 (Pfizer Inc, priority 2006, dated 2011)
